Measured values as given in ChEMBL document CHEMBL1201862, “PubChem BioAssay data set” (2004).
Activity calls are given as the source filed them.

What was measured:
P388/ADR = experiment: cells; assay type: functional; details: Mus musculus
P388 = experiment: cells; assay type: functional; details: Mus musculus
SN12K1 = experiment: cells; assay type: functional; details: Homo sapiens
BJ [1] = experiment: cells; assay type: functional, cell-based; details: Homo sapiens
BJ [2] = experiment: cytotoxicity toward BJ-TERT fibroblasts, dose response, cell-based, RAS-independent, luminescence (AID 1933); assay type: functional; details: Homo sapiens
[3] = cytotoxicity toward DRD oncogenic fibroblasts, dose response, cell-based, non-viral oncogenic, luminescence (AID 1934); assay type: functional; details: Homo sapiens
BJ [4] = experiment: cytotoxicity toward BJ-TERT-LT-ST fibroblasts, dose response, cell-based, RAS-independent, luminescence (AID 1935); assay type: functional; details: Homo sapiens;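 note: BJ fibroblasts immortalized with TERT plus LT and ST oncogenes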
BJ [5] = experiment: cytotoxicity toward Ras-transformed BJeLR fibroblasts, dose response, cell-based, alamar blue fluorescence, cherrypicked samples (AID 2631); assay type: functional; details: Homo sapiens;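 note: confirmatory dose-response assay in RAS-dependent BJ fibroblasts engineered with TERT, LT and ST, with cytotoxicity read by fluorescence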
[6] = HEp-2 cell cytotoxicity, dose response, cytotoxicity control for RSV inhibitor project, HTS (AID 2410); assay type: functional; details: human respiratory syncytial virus
[7] = intracellular Trypanosoma cruzi inhibitors in host cells – cell-based, plate reader, cherry-pick samples, set 3, dose response (AID 651818); assay type: functional;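 note: compounds incubated with infected cells for about four days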
[8] = target: T1, Sentrin-specific protease 7 (Homo sapiens, UniProt Q9BQF6); assay type: functional;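 note: Luminescence-based dose-response confirmation of ultra-high-throughput screening hits, measuring inhibition of SENP7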
T1 sequence (Q9BQF6 whole entry): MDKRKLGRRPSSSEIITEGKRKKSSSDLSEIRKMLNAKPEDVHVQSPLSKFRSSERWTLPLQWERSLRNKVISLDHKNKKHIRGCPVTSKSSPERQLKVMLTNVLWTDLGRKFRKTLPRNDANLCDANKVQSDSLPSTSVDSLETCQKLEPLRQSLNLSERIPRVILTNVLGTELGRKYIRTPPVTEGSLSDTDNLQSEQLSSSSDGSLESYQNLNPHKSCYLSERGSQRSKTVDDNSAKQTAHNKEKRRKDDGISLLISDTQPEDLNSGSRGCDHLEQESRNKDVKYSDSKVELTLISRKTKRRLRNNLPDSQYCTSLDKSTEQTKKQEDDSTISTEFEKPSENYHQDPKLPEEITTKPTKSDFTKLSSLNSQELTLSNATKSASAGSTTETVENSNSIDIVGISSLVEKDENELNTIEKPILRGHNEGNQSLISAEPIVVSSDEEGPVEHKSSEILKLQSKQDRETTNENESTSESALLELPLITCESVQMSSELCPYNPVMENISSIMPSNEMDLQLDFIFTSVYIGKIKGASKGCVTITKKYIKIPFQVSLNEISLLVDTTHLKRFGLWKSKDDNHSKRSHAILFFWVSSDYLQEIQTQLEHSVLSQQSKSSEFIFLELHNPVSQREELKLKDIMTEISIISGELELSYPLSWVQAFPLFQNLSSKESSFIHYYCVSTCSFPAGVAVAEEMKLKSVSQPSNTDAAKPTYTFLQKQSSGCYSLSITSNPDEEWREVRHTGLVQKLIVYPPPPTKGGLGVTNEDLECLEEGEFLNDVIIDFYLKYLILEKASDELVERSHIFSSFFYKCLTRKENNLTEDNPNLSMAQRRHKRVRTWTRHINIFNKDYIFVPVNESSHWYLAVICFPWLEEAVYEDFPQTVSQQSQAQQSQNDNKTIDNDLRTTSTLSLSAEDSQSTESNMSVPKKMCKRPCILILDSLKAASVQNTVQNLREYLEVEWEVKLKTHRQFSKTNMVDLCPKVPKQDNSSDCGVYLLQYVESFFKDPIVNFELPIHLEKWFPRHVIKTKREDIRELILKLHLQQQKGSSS

[9] = target: T2, Sentrin-specific protease 8 (Homo sapiens, UniProt Q96LD8); assay type: functional;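 note: luminescence read-out of SENP8 inhibition, dose-response confirmation following an ultra-high-throughput screen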
T2 sequence (Q96LD8 whole entry): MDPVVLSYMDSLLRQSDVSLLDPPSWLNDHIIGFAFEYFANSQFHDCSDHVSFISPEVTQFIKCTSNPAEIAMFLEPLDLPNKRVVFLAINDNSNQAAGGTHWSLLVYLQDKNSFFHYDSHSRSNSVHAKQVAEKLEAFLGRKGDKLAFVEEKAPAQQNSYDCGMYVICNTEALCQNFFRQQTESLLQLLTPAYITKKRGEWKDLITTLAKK

[10] = target: T3, Sentrin-specific protease 6 (Homo sapiens, UniProt Q9GZR1); assay type: functional;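 note: Luminescence-based dose-response confirmatory assay of SENP6 inhibition, following up an ultra-high-throughput screen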
T3 sequence (Q9GZR1 whole entry): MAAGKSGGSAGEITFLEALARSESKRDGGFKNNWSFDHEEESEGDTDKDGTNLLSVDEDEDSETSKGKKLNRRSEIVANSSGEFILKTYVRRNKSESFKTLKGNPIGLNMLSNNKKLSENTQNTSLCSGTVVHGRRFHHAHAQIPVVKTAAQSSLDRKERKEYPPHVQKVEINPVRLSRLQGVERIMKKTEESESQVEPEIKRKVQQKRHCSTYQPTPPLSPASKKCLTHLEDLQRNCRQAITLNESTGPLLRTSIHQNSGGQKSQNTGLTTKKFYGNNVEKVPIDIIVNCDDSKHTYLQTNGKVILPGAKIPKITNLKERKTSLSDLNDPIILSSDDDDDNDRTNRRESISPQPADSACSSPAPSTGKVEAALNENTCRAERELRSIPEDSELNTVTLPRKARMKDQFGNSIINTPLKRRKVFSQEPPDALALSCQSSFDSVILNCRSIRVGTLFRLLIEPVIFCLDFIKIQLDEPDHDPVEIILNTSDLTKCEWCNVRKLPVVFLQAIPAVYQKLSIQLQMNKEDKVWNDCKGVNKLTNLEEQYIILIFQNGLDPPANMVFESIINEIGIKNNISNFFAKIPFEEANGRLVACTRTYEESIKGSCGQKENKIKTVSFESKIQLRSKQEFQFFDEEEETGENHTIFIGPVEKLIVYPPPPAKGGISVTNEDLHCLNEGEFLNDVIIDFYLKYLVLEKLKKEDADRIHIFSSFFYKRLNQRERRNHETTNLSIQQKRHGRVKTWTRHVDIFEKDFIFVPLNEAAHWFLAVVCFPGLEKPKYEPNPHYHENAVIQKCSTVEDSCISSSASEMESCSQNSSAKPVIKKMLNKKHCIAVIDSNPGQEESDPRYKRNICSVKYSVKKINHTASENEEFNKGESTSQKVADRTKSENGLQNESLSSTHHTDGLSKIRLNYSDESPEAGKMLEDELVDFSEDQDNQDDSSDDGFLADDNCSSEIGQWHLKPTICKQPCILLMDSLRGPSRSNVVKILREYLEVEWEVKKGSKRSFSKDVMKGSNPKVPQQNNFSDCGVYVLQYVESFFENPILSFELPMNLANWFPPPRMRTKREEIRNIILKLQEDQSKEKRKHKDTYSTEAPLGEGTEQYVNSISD

Caspase-3 = target: T4, Caspase-3 (Homo sapiens, UniProt P42574); assay type: functional;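 note: Dose-response selectivity test against caspase-3 for candidate inhibitors of sentrin-specific proteases (SENPs)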
T4 sequence (P42574 whole entry): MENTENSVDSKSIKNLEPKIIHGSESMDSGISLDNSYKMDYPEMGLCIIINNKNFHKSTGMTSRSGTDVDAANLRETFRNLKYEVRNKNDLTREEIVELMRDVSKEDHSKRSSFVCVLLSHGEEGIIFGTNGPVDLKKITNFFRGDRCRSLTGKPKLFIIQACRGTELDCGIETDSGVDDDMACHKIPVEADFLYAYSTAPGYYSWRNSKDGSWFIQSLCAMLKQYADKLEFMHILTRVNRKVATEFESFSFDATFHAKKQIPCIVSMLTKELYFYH

| SMILES | GI50 (P388/ADR) | GI50 (P388) | GI50 (SN12K1) | AC50 [7] | also measured |
| --- | --- | --- | --- | --- | --- |
| CC(C)=CCC/C(C)=C/CCC1(C)C=Cc2c(c3ccccc3oc2=O)O1 (stereo not given) | 20.2 µM (inactive) | 15.2 µM (inactive) | 16.9 µM (inactive) |  |  |
| COC1=C2CC(C)CC(OC)C(O)C(C)/C=C(\C)C(OC(N)=O)C(OC)/C=C\C=C(/C)C(=O)NC(=C(/C=N/C(C)(C)C)C1=O)C2=O (stereo not given) | 3.72 µM (inactive) | 2.33 µM (inactive) | 3.64 µM (inactive) |  |  |
| CCOC(=O)/C=C/c1c(C)[nH]c(=O)[nH]c1=O | 169 µM (inactive) | 158 µM (inactive) | > 250 µM (inactive) |  |  |
| S=C(N/N=C/c1ccc2ncccc2c1)Nc1ccccc1 |  |  |  |  | EC50 (BJ [1]): 10.7 µM (active); EC50 (BJ [2]): 27.7 µM (active); EC50 [3]: 14.3 µM (active); EC50 (BJ [4]): > 150 µM (inconclusive); EC50 (BJ [5]): > 133 µM (inactive); CC50 [6]: 31.2 µM (active) |
| C/C(=N\NS(=O)(=O)c1ccccc1)c1ccccc1 | > 100 µM (inactive) | > 100 µM (inactive) | > 100 µM (inactive) |  |  |
| Cc1ccc(S(=O)(=O)Nc2ccc3c(c2)CC(=O)N([C@H](C)CO)C[C@@H](C)[C@H](CN(C)Cc2ccc(C(=O)Nc4ccccc4N)cc2)O3)cc1 |  |  |  | 2.94 µM (active) |  |
| C[C@@H]1CN([C@H](C)CO)C(=O)Cc2cc(NC(=O)c3ccncc3)ccc2O[C@H]1CN(C)Cc1ccc(-c2ccccc2)cc1 |  |  |  | 3.08 µM (active) |  |
| C[C@@H]1CN([C@H](C)CO)C(=O)c2cccc(NC(=O)c3nc4ccccc4s3)c2O[C@H]1CN(C)Cc1ccc(C(=O)Nc2ccccc2N)cc1 |  |  |  | 1.49 µM (active) |  |
| C[C@@H]1CN([C@@H](C)CO)C(=O)c2cc(NC(=O)Nc3ccc(C(F)(F)F)cc3)ccc2O[C@@H]1CN(C)S(=O)(=O)c1ccc(F)cc1 |  |  |  | 4.21 µM (active) |  |
| C[C@@H]1CN([C@H](C)CO)C(=O)Cc2cc(NS(=O)(=O)c3ccccc3)ccc2O[C@@H]1CN(C)Cc1ccc(Oc2ccccc2)cc1 |  |  |  | 4.87 µM (active) |  |
| Nc1cc(Cl)nc(N/N=C/c2c(O)ccc3ccccc23)n1 |  |  |  |  | IC50 [8]: 5.83 µM (active); IC50 [9]: > 100 µM (inactive); IC50 [10]: > 100 µM (inactive); IC50 (Caspase-3): 48 µM (active) |
| C=C(C)C(=O)O[C@H]1CC2=C[C@@H](C[C@@]3(C)O[C@@H]3[C@H]3OC(=O)C(=C)[C@@H]31)OC2=O [ELEPHANTOPIN] | 0.166 µM (active) | 0.124 µM (active) | 4.73 µM (inactive) |  |  |
